Laboratory results from publication PMC9223764, “In Vitro Selection and Characterization of HIV-1 Variants with Increased Resistance to LP-40, Enfuvirtide-Based Lipopeptide Inhibitor” (International Journal of Molecular Sciences, 2022).

Key:
Type in all cases: cell-based
Settings in all cases: Table 3
[1] = test system: HIV-1 NL4-3 pseudovirus (WT)
Method: (§1) The infectivity of HIV Env mutants and the inhibitory activities of membrane fusion inhibitors on mutants in TZM-bl cells were measured using a single-cycle infection assay as described previously. Briefly, the HIV pseudovirus was packed using an Env-coding plasmid, and pSG3ΔEnv was co-transfected into HEK293T cells. pSG3ΔEnv encodes an Env-defective, luciferase-expressing HIV-1 genome. After the pseudoviruses were harvested and filtrated, the amount of pseudoviruses was fixed via P24 antigen, and their infectivity was determined in TZM-bl cells. In order to measure the inhibitory activities of the inhibitors, inhibitors diluted serially 3-fold were mixed with an equal volume of pseudoviruses, and then 100 µL 1 × 10^5/mL TZM-bl cells were added to the mixture and incubated at 37 °C with 5% CO2 for 48 h. After that, TZM-bl cells were lysed using reporter lysis buffer, and IC50 values were calculated according to luciferase activity measured by luciferase assay reagents and a luminescence counter (Promega, Madison, WI, USA).

[2] = test system: HIV-1 NL4-3 gp41 I37T pseudovirus
Method: (§2) Viral RNA was extracted from the supernatant, and, after reverse transcription, the cDNA was amplified using PCR. These amplified DNA were connected to the T-Easy vector and transformed to Trans 2-Blue Chemically Competent Cells. These sequences were determined via sequencing. The expression plasmids, which contained different HIV-1NL4-3 Env mutants, were constructed using DNA assembly (NEBuilder® HiFi DNA Assembly Master Mix). In brief, two primers were used to amplify Env, and the other two primers were used to amplify the vector fragment. The products of PCR were purified with a 20–25 bp overlap in the terminal of Env and the vector fragment Env and the vector fragment were added to the DNA assembly master mix at […] for 15 min and then transformed to Trans 2-Blue Chemically Competent Cells. Additionally, a single-point mutation was generated using double-stranded DNA templates and a selection of mutants with a restriction enzyme (DpnI) as described previously.
as §1

[3] = test system: HIV-1 NL4-3 gp41 I69V pseudovirus
Method: as §2, §1

[4] = test system: HIV-1 NL4-3 gp41 L33S pseudovirus
Method: as §2, §1

[5] = test system: HIV-1 NL4-3 gp41 L33S/I37T pseudovirus
Method: (§3) We selected LP-40-induced drug resistance typical point mutations and combination mutation pseudoviruses to evaluate the current representative membrane fusion inhibitors.
as §1

[6] = test system: HIV-1 NL4-3 gp41 L33S/V38A/N42T pseudovirus
Method: as §3, §1

[7] = test system: HIV-1 NL4-3 gp41 NDQEEDYN pseudovirus
Method: as §3, §1

[8] = test system: HIV-1 NL4-3 gp41 NDQEEDYN/L33S/I37T pseudovirus
Method: as §3, §1

[9] = test system: HIV-1 NL4-3 gp41 NDQEEDYN/L33S/V38A/N42T pseudovirus
Method: as §3, §1

[10] = test system: HIV-1 NL4-3 gp41 V38A/N42T pseudovirus
Method: as §3, §1

Structure (SMILES): CC[C@H](C)[C@H](NC(=O)[C@H](C)NC(=O)[C@H](CCCNC(=N)N)NC(=O)[C@H](CC(=O)O)NC(=O)[C@H](Cc1c[nH]c2ccccc12)NC(=O)[C@H](C)NC(=O)[C@H](CCC(=O)O)NC(=O)[C@H](Cc1c[nH]c2ccccc12)NC(=O)[C@@H](NC(=O)[C@@H](NC(C)=O)[C@@H](C)O)[C@@H](C)O)C(=O)N[C@@H](C)C(=O)N[C@@H](CCC(=O)O)C(=O)N[C@@H](Cc1ccc(O)cc1)C(=O)N[C@@H](C)C(=O)N[C@@H](C)C(=O)N[C@@H](CCCNC(=N)N)C(=O)N[C@H](C(=O)N[C@@H](CCC(=O)O)C(=O)N[C@@H](C)C(=O)N[C@@H](CC(C)C)C(=O)N[C@H](C(=O)N[C@@H](CCCNC(=N)N)C(=O)N[C@@H](C)C(=O)N[C@@H](C)C(=O)N[C@@H](CCC(N)=O)C(=O)N[C@@H](CCC(=O)O)C(=O)N[C@@H](CCC(N)=O)C(=O)N[C@@H](CCC(N)=O)C(=O)N[C@@H](CCC(=O)O)C(=O)N[C@@H](CCCCN)C(=O)N[C@@H](CC(N)=O)C(=O)N[C@@H](CCC(=O)O)C(=O)N[C@@H](C)C(=O)N[C@@H](C)C(=O)N[C@@H](CC(C)C)C(=O)N[C@@H](CCCNC(=N)N)C(=O)N[C@@H](CCC(=O)O)C(=O)N[C@@H](CC(C)C)C(N)=O)[C@@H](C)CC)[C@@H](C)CC [T2635]
- IC50 ([1]; WT NL4-3, TZM-bl cells, 48 h, luciferase, means, triplicate, repeated three times): 0.73 nM
- Fold change in IC50 ([1]; WT NL4-3 reference): 1.00 fold
- Fold change in IC50 ([2]; I37T relative to WT NL4-3): 1.33 fold
- IC50 ([2]; I37T, TZM-bl cells, 48 h, luciferase, means, triplicate, repeated three times): 0.97 nM
- Fold change in IC50 ([3]; I69V relative to WT NL4-3): 1.04 fold
- IC50 ([3]; I69V, TZM-bl cells, 48 h, luciferase, means, triplicate, repeated three times): 0.75 nM
- Fold change in IC50 ([4]; L33S relative to WT NL4-3): 1.97 fold
- IC50 ([4]; L33S, TZM-bl cells, 48 h, luciferase, means, triplicate, repeated three times): 1.43 nM
- Fold change in IC50 ([5]; L33S/I37T relative to WT NL4-3): 2.07 fold
- IC50 ([5]; L33S/I37T, TZM-bl cells, 48 h, luciferase, means, triplicate, repeated three times): 1.51 nM
- Fold change in IC50 ([6]; L33S/V38A/N42T relative to WT NL4-3): 1.78 fold
- IC50 ([6]; L33S/V38A/N42T, TZM-bl cells, 48 h, luciferase, means, triplicate, repeated three times): 1.3 nM
- IC50 ([7]; NDQEEDYN (E109N, N113D, E119Q, D121E, N125E, S129D, H132Y, S133N), TZM-bl cells, 48 h, luciferase, means, triplicate, repeated three times): 1.94 nM
- Fold change in IC50 ([7]; NDQEEDYN relative to WT NL4-3): 2.67 fold
- Fold change in IC50 ([8]; NDQEEDYN/L33S/I37T relative to WT NL4-3): 7.49 fold
- IC50 ([8]; NDQEEDYN/L33S/I37T, TZM-bl cells, 48 h, luciferase, means, triplicate, repeated three times): 5.44 nM
- Fold change in IC50 ([9]; NDQEEDYN/L33S/V38A/N42T relative to WT NL4-3): 7.85 fold
- IC50 ([9]; NDQEEDYN/L33S/V38A/N42T, TZM-bl cells, 48 h, luciferase, means, triplicate, repeated three times): 5.73 nM
- Fold change in IC50 ([10]; V38A/N42T relative to WT NL4-3): 0.77 fold
- IC50 ([10]; V38A/N42T, TZM-bl cells, 48 h, luciferase, means, triplicate, repeated three times): 0.56 nM
